Read-outs that look alike come from different tables or passages of the source.
Biological target: T1, GluN1/GluN2B NMDA receptors (UniProt P35439+Q01097)
T1 construct: expressed in transfected cells; host or cells: Xenopus laevis oocytes (nuclear cDNA injection)
Test: TEVC electrophysiology on Xenopus oocytes expressing wt GluN1/GluN2B NMDARs
Assay type: cell-based, rat GluN1, mouse GluN2B
Conditions: for Relative current for theoretical DRC 9% trans / Relative current for theoretical DRC 18% trans / remaining activity at 0.03 µM / remaining activity at 0.1 µM / remaining activity at 0.3 µM / remaining activity at 2 µM: GluN1/GluN2B wt; for Relative current for theoretical DRC 9% trans: theoretical for 350 nm PSS; for Relative current for theoretical DRC 18% trans: theoretical for 365 nm PSS; for remaining activity at 0.03 µM / remaining activity at 0.1 µM / remaining activity at 0.3 µM / remaining activity at 2 µM: Sup. Fig. 3F, read-out: Relative current (IOpto/I0); for remaining activity at 0.03 µM: [OptoNAM-3] 0.03 µM; for remaining activity at 0.1 µM: [OptoNAM-3] 0.1 µM
From the text: The activity of OptoNAM-3 was functionally monitored by electrophysiology on Xenopus oocytes (see Methods). To assess the light-dependent effect, we tested the activities of the dark PSS (mostly trans) and the UV PSS (mostly cis, see above) separately. For each concentration, we prepared a solution divided into two samples: one in which the compound was kept in the dark for the duration of the experiment (dark PSS state); and the other that was preilluminated with either 350 or 365 nm light (350 or 365 nm PSS) and then kept away from the light for the duration of the experiment in order to avoid photoisomerization of the compounds by ambient light (see Methods). […] We generated dose–response curves of OptoNAM-3 dark and UV PSS on wild-type (wt) GluN1/GluN2B NMDA receptors (Figure 3A) in the presence of saturating concentrations of agonists (100 μM glutamate and glycine).
We used cDNA coding for rat GluN1–1a (named GluN1 herein) (GenBank: U08261.1), rat GluN2A (GenBank: D13211.1), mouse GluN2B (GenBank: D10651.2), rat GluA1 flop (GenBank: M36418.2), and rat Myc-GluA2(Q)-flip (GenBank: AF164344.1) cloned into pcDNA3-based expression plasmids. GluK2 (GenBank: Z11548.1) corresponds to the fully RNA-edited version.[80] The GluN2B-ΔNTD construct is from ref[45] and GluN2B–N615K is from ref[81]. Single mutants GluN2B-Q110G and GluN1-L135H were from ref[19]. The GluA2 cDNA contains a Myc tag ([…]) fused between the signal peptide and the N-terminus sequences, and the GluA2 subunit is […] for its Q/R/N site (GluA2(Q)) to allow permeation of homomeric GluA2 receptors.[2] cDNAs coding for rat GluN2C (GenBank: M91563.1) and GluN2D subunits (GenBank: L31611.1) were in prK5 plasmids.
Oocytes from Xenopus laevis were used for heterologous expression of recombinant NMDA receptors studied using a two-electrode voltage clamp (TEVC). Female Xenopus laevis were housed and ovary bags harvested according to the European Union guidelines (husbandry authorizations #C75–05–31 and #D75–05–31; project authorizations #05137.02; and Apafis #28867–2020121814485893). Fragments of ovary bags were also purchased from the “Centre de Ressources Biologiques Xenopes” (now TEFOR, Paris Saclay, France) and from the European Xenopus Resource Center (EXRC, Portsmouth, UK). Xenopus laevis oocytes were harvested and prepared as previously described in ref[82].
Expression of recombinant NMDA receptors was obtained by oocyte nuclear coinjection of 37 nL of a mixture of cDNAs (at 30 ng/μL) coding for GluN1–1a and various GluN2 subunits (ratio 1:1). The protocol in ref[43] was followed for the expression of GluN1/GluN2A/GluN2B triheteromers. The oocytes were transferred in 96-well plates filled with Barth solution (in mM: 88 NaCl, 1 KCl, 0.33 Ca(NO3)2, 0.41 CaCl2, 0.82 MgSO4, 2.4 NaHCO3, and 7.5 HEPES, pH adjusted to 7.3 with NaOH), supplemented with gentamicin ([…]) and 50 μM APV, a selective NMDA receptor antagonist. Plates were then stored at 18 °C for 24 h for GluN1/GluN2A expression and for 48––72 h for the expression of GluN1/Glu2B, GluN1/GluN2A/GluN2B, and mutants.
TEVC recordings were performed 1–3 days following injection. TEVC recordings were performed using an Oocyte Clamp amplifier OC-725 (Warner Instruments) and computer-controlled via a 1440A Digidata (Molecular Devices). Currents were sampled at 100 Hz and low-pass-filtered at 20 Hz using an 8-pole Bessel filter (900 Series, Frequency Devices Inc.).

[1] = OptoNAM-3 dark PSS (trans) + 0.2 µM ifenprodil
[2] = OptoNAM-3 dark PSS (trans), no ifenprodil
[3] = preilluminated in solution, Xenopus oocytes

T1 sequence (Q01097 27-1482, other chains not shown): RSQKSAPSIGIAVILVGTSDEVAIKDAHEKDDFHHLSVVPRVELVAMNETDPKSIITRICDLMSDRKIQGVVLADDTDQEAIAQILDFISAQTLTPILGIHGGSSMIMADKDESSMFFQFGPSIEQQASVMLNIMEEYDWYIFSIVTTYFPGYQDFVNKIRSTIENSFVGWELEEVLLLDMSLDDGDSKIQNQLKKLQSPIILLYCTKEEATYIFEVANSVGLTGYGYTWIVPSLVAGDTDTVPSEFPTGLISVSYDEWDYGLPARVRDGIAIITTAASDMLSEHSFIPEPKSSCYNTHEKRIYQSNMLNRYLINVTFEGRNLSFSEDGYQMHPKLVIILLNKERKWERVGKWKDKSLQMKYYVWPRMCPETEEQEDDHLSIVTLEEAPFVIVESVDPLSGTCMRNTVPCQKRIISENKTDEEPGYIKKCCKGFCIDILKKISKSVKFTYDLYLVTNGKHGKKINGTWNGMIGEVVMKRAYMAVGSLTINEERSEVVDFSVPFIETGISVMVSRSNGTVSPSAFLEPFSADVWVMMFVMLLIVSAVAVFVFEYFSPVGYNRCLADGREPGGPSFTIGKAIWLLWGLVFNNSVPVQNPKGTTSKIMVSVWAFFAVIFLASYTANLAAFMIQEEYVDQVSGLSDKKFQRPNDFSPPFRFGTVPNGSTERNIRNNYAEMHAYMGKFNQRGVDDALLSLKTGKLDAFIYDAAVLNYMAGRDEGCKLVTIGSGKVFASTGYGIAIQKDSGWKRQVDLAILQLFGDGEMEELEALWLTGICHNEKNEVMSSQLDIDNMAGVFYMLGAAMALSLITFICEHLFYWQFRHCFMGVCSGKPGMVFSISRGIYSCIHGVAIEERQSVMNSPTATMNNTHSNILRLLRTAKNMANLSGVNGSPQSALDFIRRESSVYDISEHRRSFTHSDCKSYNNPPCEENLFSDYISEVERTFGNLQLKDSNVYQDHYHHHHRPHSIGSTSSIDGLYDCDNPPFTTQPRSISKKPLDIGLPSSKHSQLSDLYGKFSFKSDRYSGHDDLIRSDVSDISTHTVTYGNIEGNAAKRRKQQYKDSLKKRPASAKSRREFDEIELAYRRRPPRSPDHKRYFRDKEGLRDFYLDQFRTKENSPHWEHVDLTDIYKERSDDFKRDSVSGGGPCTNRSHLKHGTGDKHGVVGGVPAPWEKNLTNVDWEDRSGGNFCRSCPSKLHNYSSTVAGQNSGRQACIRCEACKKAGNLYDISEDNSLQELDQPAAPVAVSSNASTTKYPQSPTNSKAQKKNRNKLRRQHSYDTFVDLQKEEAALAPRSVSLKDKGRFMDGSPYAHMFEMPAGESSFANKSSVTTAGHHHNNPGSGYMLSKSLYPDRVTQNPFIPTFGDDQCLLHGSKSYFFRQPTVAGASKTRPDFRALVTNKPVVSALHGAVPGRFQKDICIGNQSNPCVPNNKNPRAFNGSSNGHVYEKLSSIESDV

c1ccc(/N=N/c2ccc(CCNc3ccncc3)cc2)cc1 [OptoNAM-3, (E)-N-(4-(Phenyldiazenyl)phenethyl)pyridin-4-amine]
Relative current for theoretical DRC 9% trans ([OptoNAM-3] 1 µM): 0.775
Relative current for theoretical DRC 9% trans ([OptoNAM-3] 2 µM): 0.656
Relative current for theoretical DRC 9% trans ([OptoNAM-3] 3 µM): 0.570
Relative current for theoretical DRC 9% trans ([OptoNAM-3] 5 µM): 0.452
Relative current for theoretical DRC 18% trans ([OptoNAM-3] 0.025 µM): 0.980
Relative current for theoretical DRC 18% trans ([OptoNAM-3] 0.05 µM): 0.965
Relative current for theoretical DRC 18% trans ([OptoNAM-3] 0.125 µM): 0.924
Relative current for theoretical DRC 18% trans ([OptoNAM-3] 0.22 µM): 0.880
Relative current for theoretical DRC 18% trans ([OptoNAM-3] 0.3 µM): 0.848
Relative current for theoretical DRC 18% trans ([OptoNAM-3] 0.5 µM): 0.775
Relative current for theoretical DRC 18% trans ([OptoNAM-3] 1 µM): 0.656
Relative current for theoretical DRC 18% trans ([OptoNAM-3] 2 µM): 0.500
Relative current for theoretical DRC 18% trans ([OptoNAM-3] 3 µM): 0.416
Relative current for theoretical DRC 18% trans ([OptoNAM-3] 5 µM): 0.307
Relative current for theoretical DRC 18% trans ([OptoNAM-3] 30 µM): 0.073
remaining activity at 0.03 µM [1]: 93.3%
remaining activity at 0.1 µM [1]: 89%
remaining activity at 0.3 µM (OptoNAM-3 dark PSS (trans) + 0.2 µM ifenprodil, [OptoNAM-3] 0.3 µM): 77.3%
remaining activity at 2 µM (OptoNAM-3 dark PSS (trans) + 0.2 µM ifenprodil, [OptoNAM-3] 2 µM): 32.6%
remaining activity at 0.03 µM [2]: 95.1%
remaining activity at 0.1 µM [2]: 84.9%
remaining activity at 0.3 µM (OptoNAM-3 dark PSS (trans), no ifenprodil, [OptoNAM-3] 0.3 µM): 63.5%
remaining activity at 2 µM (OptoNAM-3 dark PSS (trans), no ifenprodil, [OptoNAM-3] 2 µM): 14.7%
Mean Relative current (IOpto/I0) ([OptoNAM-3] 0.025 µM, 365 nm PSS): 0.933
Mean Relative current (IOpto/I0) ([OptoNAM-3] 0.025 µM, dark PSS (trans)): 0.887
Mean Relative current (IOpto/I0) ([OptoNAM-3] 0.050 µM, 365 nm PSS): 0.910
Mean Relative current (IOpto/I0) ([OptoNAM-3] 0.050 µM, dark PSS (trans)): 0.827
Mean Relative current (IOpto/I0) ([OptoNAM-3] 0.125 µM, 350 nm PSS): 0.907
Mean Relative current (IOpto/I0) ([OptoNAM-3] 0.125 µM, 365 nm PSS): 0.912
Mean Relative current (IOpto/I0) ([OptoNAM-3] 0.125 µM, dark PSS (trans)): 0.758
Mean Relative current (IOpto/I0) ([OptoNAM-3] 0.220 µM, 365 nm PSS): 0.880
Mean Relative current (IOpto/I0) ([OptoNAM-3] 0.220 µM, dark PSS (trans)): 0.592
Mean Relative current (IOpto/I0) ([OptoNAM-3] 0.300 µM, 350 nm PSS): 0.918
Mean Relative current (IOpto/I0) ([OptoNAM-3] 0.300 µM, 365 nm PSS): 0.841
Mean Relative current (IOpto/I0) ([OptoNAM-3] 0.300 µM, dark PSS (trans)): 0.581
Mean Relative current (IOpto/I0) ([OptoNAM-3] 0.470 µM, 350 nm PSS): 0.900
Mean Relative current (IOpto/I0) ([OptoNAM-3] 0.500 µM, 365 nm PSS): 0.666
Mean Relative current (IOpto/I0) ([OptoNAM-3] 1.000 µM, 350 nm PSS): 0.860
Mean Relative current (IOpto/I0) ([OptoNAM-3] 1.000 µM, 365 nm PSS): 0.644
Mean Relative current (IOpto/I0) ([OptoNAM-3] 1.000 µM, dark PSS (trans)): 0.307
Mean Relative current (IOpto/I0) ([OptoNAM-3] 2.000 µM, 350 nm PSS): 0.656
Mean Relative current (IOpto/I0) ([OptoNAM-3] 2.000 µM, 365 nm PSS): 0.433
Mean Relative current (IOpto/I0) ([OptoNAM-3] 2.000 µM, dark PSS (trans)): 0.141
Mean Relative current (IOpto/I0) ([OptoNAM-3] 3.000 µM, 350 nm PSS): 0.613
Mean Relative current (IOpto/I0) ([OptoNAM-3] 3.000 µM, 365 nm PSS): 0.375
Mean Relative current (IOpto/I0) ([OptoNAM-3] 3.000 µM, dark PSS (trans)): 0.098
Mean Relative current (IOpto/I0) ([OptoNAM-3] 5.000 µM, 350 nm PSS): 0.446
Mean Relative current (IOpto/I0) ([OptoNAM-3] 5.000 µM, 365 nm PSS): 0.267
Mean Relative current (IOpto/I0) ([OptoNAM-3] 5.000 µM, dark PSS (trans)): 0.092
Mean Relative current (IOpto/I0) ([OptoNAM-3] 30.000 µM, 365 nm PSS): 0.034
Mean Relative current (IOpto/I0) ([OptoNAM-3] 30.000 µM, dark PSS (trans)): 0.00423
IC50 (control curve of the ifenprodil competition experiment, read-out: IC50 in the dark in absence of ifenprodil): 460 ± 60 nM
increase of IC50 by 0.2 µM ifenprodil (dark): ~ 2 fold
IC50 (dark PSS (trans), 100 µM glutamate + glycine, Xenopus oocytes, read-out: IC50 on GluN1/GluN2B receptors in the dark): 380 ± 30 nM
IC50 (dark PSS (trans), Xenopus oocytes, read-out: IC50 on GluN1/GluN2B receptors in the dark): 380 nM
UV/dark IC50 ratio (350 nm PSS vs dark) [3]: 11.5 fold
UV/dark IC50 ratio (365 nm PSS vs dark) [3]: 4.5 fold
IC50 (range over HEK cells and Xenopus oocytes, read-out: IC50 in the dark (trans isomer)): 150 to 380 nM
activity of the cis isomer on GluN1/GluN2B NMDARs (theoretical dose-response curve of a pure cis population calculated from 365 and 350 nm PSS): no inhibitory activity
